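The concentration for 50% growth inhibition is given as GI50. TGI is the concentration that stops growth completely.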
What was measured:
Assay in all cases: inhibition of tumour cell growth, NCI panel, 384-well format
EKVX NSCLC = system: EKVX NSCLC
LOX IMVI melanoma = system: LOX IMVI melanoma
T-47D breast = system: T-47D breast
HOP-92 NSCLC = system: HOP-92 NSCLC
HCC-2998 colon = system: HCC-2998 colon
OVCAR-3 ovarian = system: OVCAR-3 ovarian
K-562 leukemia = system: K-562 leukemia
SF-295 CNS = system: SF-295 CNS
OVCAR-8 ovarian = system: OVCAR-8 ovarian
TK-10 renal = system: TK-10 renal
HT29 colon = system: HT29 colon
MOLT-4 leukemia = system: MOLT-4 leukemia
IGROV1 ovarian = system: IGROV1 ovarian
MDA-MB-435 melanoma = system: MDA-MB-435 melanoma
M14 melanoma = system: M14 melanoma
HCT-116 colon = system: HCT-116 colon
KM12 colon = system: KM12 colon
OVCAR-5 ovarian = system: OVCAR-5 ovarian
MDA-MB-468 breast = system: MDA-MB-468 breast
BT-549 breast = system: BT-549 breast
HS 578T breast = system: HS 578T breast
HCT-15 colon = system: HCT-15 colon
SF-539 CNS = system: SF-539 CNS
MCF7 breast = system: MCF7 breast
COLO 205 colon = system: COLO 205 colon
UO-31 renal = system: UO-31 renal
NCI-H460 NSCLC = system: NCI-H460 NSCLC
SK-MEL-5 melanoma = system: SK-MEL-5 melanoma
SNB-75 CNS = system: SNB-75 CNS
OVCAR-4 ovarian = system: OVCAR-4 ovarian
SK-OV-3 ovarian = system: SK-OV-3 ovarian
MALME-3M melanoma = system: MALME-3M melanoma
NCI-H322M lung = system: NCI-H322M lung
SW-620 colon = system: SW-620 colon
PC-3 prostate = system: PC-3 prostate
HL-60(TB) leukemia = system: HL-60(TB) leukemia
ACHN renal = system: ACHN renal
A549 NSCLC = system: A549 NSCLC
NCI-H226 lung = system: NCI-H226 lung
U251 glioblastoma = system: U251 glioblastoma
NCI-H23 lung = system: NCI-H23 lung
SF-268 CNS = system: SF-268 CNS
DU-145 prostate = system: DU-145 prostate
UACC-257 melanoma = system: UACC-257 melanoma
NCI/ADR-RES ovarian = system: NCI/ADR-RES ovarian
CCRF-CEM leukemia = system: CCRF-CEM leukemia
RXF 393 renal = system: RXF 393 renal
RPMI-8226 leukemia = system: RPMI-8226 leukemia
CAKI-1 renal = system: CAKI-1 renal
HOP-62 NSCLC = system: HOP-62 NSCLC
786-0 renal = system: 786-0 renal
UACC-62 melanoma = system: UACC-62 melanoma

## COc1ncc(-c2ccc3nccc(-c4ccnnc4)c3c2)cc1NS(=O)(=O)c1ccc(F)cc1F
EKVX NSCLC
  GI50: < 10 nM
  TGI: 98 nM
LOX IMVI melanoma
  GI50: 12.3 nM
  TGI: 135 nM
T-47D breast
  GI50: < 10 nM
  TGI: < 10 nM
HOP-92 NSCLC
  GI50: < 10 nM
  TGI: 46 nM
HCC-2998 colon
  GI50: 14.3 nM
  TGI: 912 nM
OVCAR-3 ovarian
  GI50: < 10 nM
  TGI: 110 nM
K-562 leukemia
  GI50: 44.2 nM
  TGI: 12500 nM
SF-295 CNS
  GI50: < 10 nM
  TGI: 54.1 nM
OVCAR-8 ovarian
  GI50: 23.4 nM
  TGI: 1850 nM
TK-10 renal
  GI50: < 10 nM
  TGI: 251 nM
HT29 colon
  GI50: < 10 nM
  TGI: 1410 nM
MOLT-4 leukemia
  GI50: < 10 nM
  TGI: < 10 nM
IGROV1 ovarian
  GI50: < 10 nM
  TGI: < 10 nM
MDA-MB-435 melanoma
  GI50: 18.2 nM
  TGI: 1130 nM
M14 melanoma
  GI50: < 10 nM
  TGI: 1070 nM
HCT-116 colon
  GI50: 13.3 nM
  TGI: 1170 nM
KM12 colon
  GI50: 21.9 nM
  TGI: 2190 nM
OVCAR-5 ovarian
  GI50: < 10 nM
  TGI: 1130 nM
MDA-MB-468 breast
  GI50: < 10 nM
  TGI: 11.7 nM
BT-549 breast
  GI50: < 10 nM
  TGI: 48.3 nM
HS 578T breast
  GI50: < 10 nM
  TGI: 17.3 nM
HCT-15 colon
  GI50: < 10 nM
  TGI: 2960 nM
SF-539 CNS
  GI50: 13.8 nM
  TGI: 103 nM
MCF7 breast
  GI50: < 10 nM
  TGI: 73400 nM
COLO 205 colon
  GI50: < 10 nM
  TGI: 125 nM
UO-31 renal
  GI50: < 10 nM
  TGI: 137 nM
NCI-H460 NSCLC
  GI50: < 10 nM
  TGI: 51.5 nM
SK-MEL-5 melanoma
  GI50: < 10 nM
  TGI: 43.6 nM
SNB-75 CNS
  GI50: < 10 nM
  TGI: 14.2 nM
OVCAR-4 ovarian
  GI50: 25.2 nM
  TGI: 480 nM
SK-OV-3 ovarian
  GI50: < 10 nM
  TGI: 51.3 nM
MALME-3M melanoma
  GI50: < 10 nM
  TGI: 26.4 nM
NCI-H322M lung
  GI50: 11.1 nM
  TGI: 723 nM
SW-620 colon
  GI50: 35.4 nM
  TGI: 1500 nM
PC-3 prostate
  GI50: < 10 nM
  TGI: 97.6 nM
HL-60(TB) leukemia
  GI50: < 10 nM
  TGI: 10.7 nM
ACHN renal
  GI50: < 10 nM
  TGI: > 100000 nM
A549 NSCLC
  GI50: < 10 nM
  TGI: 101 nM
NCI-H226 lung
  GI50: 18.5 nM
  TGI: 2400 nM
U251 glioblastoma
  GI50: 21.1 nM
  TGI: 1270 nM
NCI-H23 lung
  GI50: < 10 nM
  TGI: 2520 nM
SF-268 CNS
  GI50: < 10 nM
  TGI: < 10 nM
DU-145 prostate
  GI50: 21.4 nM
  TGI: > 100000 nM
UACC-257 melanoma
  GI50: 13.3 nM
  TGI: 87.3 nM
NCI/ADR-RES ovarian
  GI50: 43 nM
  TGI: 1650 nM
CCRF-CEM leukemia
  GI50: < 10 nM
  TGI: < 10 nM
RXF 393 renal
  GI50: < 10 nM
  TGI: 25.3 nM
RPMI-8226 leukemia
  GI50: 15.5 nM
  TGI: 54.4 nM
CAKI-1 renal
  GI50: < 10 nM
  TGI: 106 nM
HOP-62 NSCLC
  GI50: 25.7 nM
  TGI: 635 nM
786-0 renal
  GI50: 17.1 nM
  TGI: 276 nM
UACC-62 melanoma
  GI50: < 10 nM
  TGI: 33.3 nM

From PubChem BioAssay (NCI)
